Assays:
[1] = (§1) The drug is tested on WLS-086 corresponding to human gut metagenome with ENA study accession number: PRJEB37062 and ENA sample accession number: ERS12561752 for biotransformation under anaerobic condition. The drug concentrations were measured over 9 timepoints collected between 0 and 24 hours of incubation by liquid-chromatography-coupled mass spectrometry (LC–MS); conditions: 2 µM
[2] = human gut metagenome, 24 h, 2 µM
[3] = human gut metagenome, 24 h, 2 µM; remark: listed apart in the source
[4] = as §1, with “WLS-038” for “WLS-086”, “ERS12561745” for “ERS12561752”; conditions: 2 µM
[5] = human gut metagenome, 24 h, 2 µM; remark: listed apart in the source
[6] = as §1, with “WLS-090” for “WLS-086”, “ERS12561753” for “ERS12561752”; conditions: 2 µM
[7] = human gut metagenome, 24 h, 2 µM; remark: listed apart in the source
[8] = as §1, with “WLS-077” for “WLS-086”, “ERS12561750” for “ERS12561752”; conditions: 2 µM
[9] = human gut metagenome, 24 h, 2 µM; remark: listed apart in the source
Note: call rule not given here.

Structure (SMILES) | Bacterial Biotransformation [1] | Bacterial Biotransformation [2] | Bacterial Biotransformation [3] | Bacterial Biotransformation [4] | Bacterial Biotransformation [5] | Bacterial Biotransformation [6] | Bacterial Biotransformation [7] | Bacterial Biotransformation [8] | Bacterial Biotransformation [9]
CC(C)NCC(O)COc1ccc(CCOCC2CC2)cc1 (stereo unspecified) [BETAXOLOL] | Compound metabolized | Compound NOT metabolized | Compound NOT metabolized | Compound NOT metabolized | Compound NOT metabolized | Compound metabolized | Compound metabolized | Compound NOT metabolized | Compound metabolized
CC(C)(Oc1ccc(CCNC(=O)c2ccc(Cl)cc2)cc1)C(=O)O [BEZAFIBRATE] | Compound metabolized | Compound metabolized | Compound NOT metabolized | Compound metabolized | Compound metabolized | Compound metabolized | Compound metabolized | Compound metabolized | Compound metabolized
CC(O)(CS(=O)(=O)c1ccc(F)cc1)C(=O)Nc1ccc(C#N)c(C(F)(F)F)c1 (stereo unspecified) [BICALUTAMIDE] | Compound NOT metabolized | Compound NOT metabolized | Compound NOT metabolized | Compound NOT metabolized | Compound NOT metabolized | Compound NOT metabolized | Compound NOT metabolized | Compound NOT metabolized | Compound NOT metabolized
CCCC1O[C@@H]2C[C@H]3[C@@H]4CCC5=CC(=O)C=C[C@]5(C)[C@H]4[C@@H](O)C[C@]3(C)[C@]2(C(=O)CO)O1 (stereo partly specified) [BUDESONIDE] | Compound metabolized | Compound metabolized | Compound metabolized | Compound metabolized | Compound metabolized | Compound metabolized | Compound metabolized | Compound metabolized | Compound metabolized
O=C(NCc1ccccc1)OCCO [BURAMATE] | Compound NOT metabolized | Compound NOT metabolized | Compound NOT metabolized | Compound NOT metabolized | Compound NOT metabolized | Compound NOT metabolized | Compound NOT metabolized | Compound NOT metabolized | Compound NOT metabolized
CCN(CC)CCOCCOC(=O)C1(c2ccccc2)CCCC1.O=C(O)CC(O)(CC(=O)O)C(=O)O [CARBETAPENTANE CITRATE] | Compound NOT metabolized | Compound metabolized | Compound NOT metabolized | Compound metabolized | Compound metabolized | Compound metabolized | Compound metabolized | Compound metabolized | Compound metabolized
O=C(O)COCCN1CCN(C(c2ccccc2)c2ccc(Cl)cc2)CC1 (stereo unspecified) [CETIRIZINE] | Compound metabolized | Compound metabolized | Compound metabolized | Compound metabolized | Compound metabolized | Compound metabolized | Compound metabolized | Compound metabolized | Compound metabolized
CN/C(=N/CCSCc1nc[nH]c1C)NC#N [CIMETIDINE] | Compound metabolized | Compound NOT metabolized | Compound NOT metabolized | Compound NOT metabolized | Compound metabolized | Compound metabolized | Compound metabolized | Compound metabolized | Compound metabolized
Br.CN(C)CCCC1(c2ccc(F)cc2)OCc2cc(C#N)ccc21 (stereo unspecified) [CITALOPRAM HYDROBROMIDE] | Compound metabolized | Compound NOT metabolized | Compound NOT metabolized | Compound NOT metabolized | Compound NOT metabolized | Compound metabolized | Compound metabolized | Compound NOT metabolized | Compound metabolized
CN(C)CCC=C1c2ccccc2C=Cc2ccccc21 [CYCLOBENZAPRINE] | Compound metabolized | Compound metabolized | Compound NOT metabolized | Compound NOT metabolized | Compound metabolized | Compound metabolized | Compound metabolized | Compound NOT metabolized | Compound NOT metabolized
O=C(Nc1ccccc1)OCC(CN1CCCCC1)OC(=O)Nc1ccccc1 (stereo unspecified) [DIPERODON] | Compound metabolized | Compound NOT metabolized | Compound NOT metabolized | Compound NOT metabolized | Compound NOT metabolized | Compound metabolized | Compound metabolized | Compound NOT metabolized | Compound metabolized
CC(C)N(CCC(C(N)=O)(c1ccccc1)c1ccccn1)C(C)C.O=P(O)(O)O (stereo unspecified) [DISOPYRAMIDE PHOSPHATE] | Compound metabolized | Compound NOT metabolized | Compound NOT metabolized | Compound NOT metabolized | Compound NOT metabolized | Compound metabolized | Compound NOT metabolized | Compound NOT metabolized | Compound NOT metabolized
C[C@@H](CO)NC(=O)[C@@H]1C=C2c3cccc4[nH]cc(c34)C[C@H]2N(C)C1.O=C(O)/C=C\C(=O)O [ERGONOVINE MALEATE] | Compound metabolized | Compound NOT metabolized | Compound NOT metabolized | Compound metabolized | Compound metabolized | Compound metabolized | Compound metabolized | Compound metabolized | Compound metabolized
CCN(CC)C(C)CN1c2ccccc2Sc2ccccc21 (stereo unspecified) [ETHOPROPAZINE] | Compound metabolized | Compound metabolized | Compound NOT metabolized | Compound NOT metabolized | Compound metabolized | Compound metabolized | Compound metabolized | Compound metabolized | Compound metabolized
Cc1nc(-c2ccc(OCC(C)C)c(C#N)c2)sc1C(=O)O [FEBUXOSTAT] | Compound metabolized | Compound metabolized | Compound metabolized | Compound metabolized | Compound metabolized | Compound metabolized | Compound metabolized | Compound metabolized | Compound metabolized
CC(C)(C(=O)O)c1ccc(C(O)CCCN2CCC(C(O)(c3ccccc3)c3ccccc3)CC2)cc1 (stereo unspecified) [FEXOFENADINE] | Compound NOT metabolized | Compound NOT metabolized | Compound NOT metabolized | Compound NOT metabolized | Compound NOT metabolized | Compound NOT metabolized | Compound NOT metabolized | Compound NOT metabolized | Compound NOT metabolized
COc1ccc2c3c1O[C@H]1C[C@@H](O)C=C[C@@]31CCN(C)C2 [GALANTAMINE] | Compound metabolized | Compound NOT metabolized | Compound metabolized | Compound NOT metabolized | Compound NOT metabolized | Compound metabolized | Compound metabolized | Compound NOT metabolized | Compound metabolized
Cc1ccc(S(=O)(=O)NC(=O)NN2CC3CCCC3C2)cc1 (stereo unspecified) [GLICLAZIDE] | Compound metabolized | Compound NOT metabolized | Compound metabolized | Compound metabolized | Compound metabolized | Compound metabolized | Compound metabolized | Compound metabolized | Compound metabolized
COC1=CC(=O)C[C@@H](C)[C@]12Oc1c(Cl)c(OC)cc(OC)c1C2=O [GRISEOFULVIN] | Compound metabolized | Compound metabolized | Compound metabolized | Compound metabolized | Compound metabolized | Compound NOT metabolized | Compound metabolized | Compound metabolized | Compound metabolized
